A short description of series [1]: Mouse tolerability (non-GLP oral single dose / MTD study). It counts as in vivo. The settings on record: in vivo; mouse; non-GLP oral single dose study / MTD study. On the procedure:
ONC212 25 mg/kg represents NOAEL in mouse and rat non-GLP oral single dose studies which is also the efficacious dose in mouse xenograft studies. […].
Dual targeting of DRD2/3 and GPR132/91 represents a novel strategy for anti-cancer efficacy without toxicity. […] […]. […] […].

The target in a further series is DRD3 (Homo sapiens, UniProt P35462). The series is described as follows: β-arrestin recruitment GPCR reporter assay, DRD3. It counts as cell-based. In general terms: Arrestin recruitment assays detect the binding of arrestin to an activated receptor.
Chain of DRD3 (P35462 whole entry, canonical isoform): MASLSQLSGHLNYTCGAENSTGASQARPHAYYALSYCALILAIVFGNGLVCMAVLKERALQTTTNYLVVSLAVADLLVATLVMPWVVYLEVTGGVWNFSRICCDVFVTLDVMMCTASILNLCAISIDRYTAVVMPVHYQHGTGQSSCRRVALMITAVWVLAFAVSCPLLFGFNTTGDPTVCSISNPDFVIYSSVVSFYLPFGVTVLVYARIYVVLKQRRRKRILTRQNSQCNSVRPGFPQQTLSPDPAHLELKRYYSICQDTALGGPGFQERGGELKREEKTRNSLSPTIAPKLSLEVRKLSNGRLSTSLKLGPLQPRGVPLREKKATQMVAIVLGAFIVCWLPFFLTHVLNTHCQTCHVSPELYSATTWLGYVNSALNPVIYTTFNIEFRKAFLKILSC
For series [2], the system named is DRD2 (short and long isoforms). The series is described as follows: β-arrestin recruitment GPCR reporter assay, DRD2. It counts as cell-based.
The target in the next series is GPR91 (Homo sapiens, UniProt Q9BXA5). In words: β-arrestin recruitment GPCR reporter assay, GPR91. Type of series: cell-based.
Chain of GPR91 (Q9BXA5 whole entry): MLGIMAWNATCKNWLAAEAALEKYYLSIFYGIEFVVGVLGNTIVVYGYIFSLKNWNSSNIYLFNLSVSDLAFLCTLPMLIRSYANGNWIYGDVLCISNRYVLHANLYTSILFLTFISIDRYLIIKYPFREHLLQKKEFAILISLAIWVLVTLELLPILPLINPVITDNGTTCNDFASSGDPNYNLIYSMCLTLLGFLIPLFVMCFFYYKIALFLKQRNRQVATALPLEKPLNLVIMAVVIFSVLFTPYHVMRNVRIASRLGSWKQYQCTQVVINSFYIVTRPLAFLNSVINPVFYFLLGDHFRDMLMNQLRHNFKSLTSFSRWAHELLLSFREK
Series [3] relates to Staphylococcus aureus ATCC 29213. In words: MIC by micro-broth dilution, S. aureus ATCC 29213. The note with it: ATCC29213; for MIC90: read-out: MIC90; for MIC99: read-out: MIC99. Type of series: cell-based. On the technique in general: In broth dilution the organism is exposed to a series of concentrations in liquid medium.
Series [4] concerns Staphylococcus aureus ATCC 700699. In words: MIC by micro-broth dilution, S. aureus ATCC 700699. It counts as cell-based. The settings on record: ATCC700699; for MIC90: read-out: MIC90; for MIC99: read-out: MIC99.
Series [5] has as its system Staphylococcus aureus ATCC 33591. In words: MIC by micro-broth dilution, S. aureus ATCC 33591. It counts as cell-based. The note with it: ATCC33591; for MIC90: read-out: MIC90; for MIC99: read-out: MIC99.
Another series addresses T1, GPR132 (Homo sapiens, UniProt Q9UNW8).
T1 sequence (Q9UNW8 1-380): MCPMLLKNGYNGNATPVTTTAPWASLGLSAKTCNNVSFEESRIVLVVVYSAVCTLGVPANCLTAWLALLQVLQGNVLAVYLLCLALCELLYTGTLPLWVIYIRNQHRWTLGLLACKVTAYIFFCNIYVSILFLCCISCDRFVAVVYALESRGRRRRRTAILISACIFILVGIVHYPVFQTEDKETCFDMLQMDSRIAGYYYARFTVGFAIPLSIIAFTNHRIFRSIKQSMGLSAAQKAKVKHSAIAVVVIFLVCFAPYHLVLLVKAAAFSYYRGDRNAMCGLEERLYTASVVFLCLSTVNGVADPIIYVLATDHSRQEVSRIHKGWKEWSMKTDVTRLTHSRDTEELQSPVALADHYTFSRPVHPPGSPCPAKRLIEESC
The series is described as follows: β-arrestin recruitment GPCR reporter assay, GPR132. Type of series: cell-based.

The subject of a further series is normal cells. In words: In vitro toxicity to normal cells. It counts as cell-based. The note with it: FIG. 33.
Another series relates to human cancer cells. The series is described as follows: Viability of human cancer cells at 72 hours post-treatment. It counts as cell-based. The note with it: relative to the potency of ONC201; viability of human cancer cells at 72 hours post-treatment.
For a further series, the system named is GPCRs. The series is described as follows: GPCR profiling by arrestin recruitment reporter assay (panel). It counts as cell-based. The note with it: 10 μM.
A further series has as its target DRD5 (Homo sapiens, UniProt P21918). The series is described as follows: β-arrestin recruitment GPCR reporter assay, DRD5. The note with it: arrestin recruitment reporter assay. Type of series: cell-based.
For a further series, the target named is CXCR7 (Homo sapiens, UniProt P25106). In words: β-arrestin recruitment GPCR reporter assay, CXCR7. It counts as cell-based.
Chain of CXCR7 (P25106 whole entry): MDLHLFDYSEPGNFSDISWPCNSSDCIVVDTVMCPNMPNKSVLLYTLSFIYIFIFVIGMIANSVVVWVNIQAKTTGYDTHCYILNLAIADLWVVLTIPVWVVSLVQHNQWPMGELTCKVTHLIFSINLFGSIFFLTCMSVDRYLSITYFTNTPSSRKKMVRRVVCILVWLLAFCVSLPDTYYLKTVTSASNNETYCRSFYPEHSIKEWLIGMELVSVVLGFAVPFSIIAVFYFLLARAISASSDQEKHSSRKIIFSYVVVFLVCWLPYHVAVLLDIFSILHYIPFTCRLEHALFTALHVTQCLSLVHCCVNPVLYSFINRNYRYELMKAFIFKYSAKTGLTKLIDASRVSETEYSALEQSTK
In the next series the target is DRD2L (Homo sapiens, UniProt P14416). The series is described as follows: Gaddum/Schild analysis of arrestin recruitment to DRD2L. It counts as cell-based. The note with it: arrestin recruitment / cAMP reporters (FIGS. 5B, 5C, 5F).
Chain of DRD2L (P14416 whole entry): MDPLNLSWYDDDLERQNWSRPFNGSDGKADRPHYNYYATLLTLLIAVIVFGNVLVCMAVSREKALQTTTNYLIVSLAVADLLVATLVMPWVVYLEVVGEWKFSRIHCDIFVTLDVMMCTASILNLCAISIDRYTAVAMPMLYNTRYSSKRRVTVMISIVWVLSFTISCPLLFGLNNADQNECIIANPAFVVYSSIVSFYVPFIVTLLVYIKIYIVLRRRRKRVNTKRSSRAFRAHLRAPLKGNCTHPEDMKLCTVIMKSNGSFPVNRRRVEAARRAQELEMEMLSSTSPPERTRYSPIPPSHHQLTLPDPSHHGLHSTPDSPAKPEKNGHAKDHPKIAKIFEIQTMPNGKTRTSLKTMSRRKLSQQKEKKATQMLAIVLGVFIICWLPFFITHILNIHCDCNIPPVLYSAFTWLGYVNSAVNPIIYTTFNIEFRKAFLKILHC
For series [6] the following is noted: Jacob et al. 2014; Wagner et al. 2015; cited from earlier work.
The mark [7] stands for this setting: wild type Staphylococcus aureus (ATCC 29213), read-out: MIC.
Setting [8] is: Staphylococcus aureus, ATCC 29213, 24 hours.
Setting [9] is: Staphylococcus aureus, ATCC 29213, 24 hours, read-out: MIC95.
The mark [10] stands for this setting: Staphylococcus aureus, ATCC 29213, 24 hours, read-out: MIC, Visual.
Setting [11] is: Staphylococcus aureus, ATCC 700699 (48 hours).
Where [12] appears, read: Staphylococcus aureus, ATCC 700699 (48 hours), read-out: MIC95.
[13] abbreviates: Staphylococcus aureus, ATCC 700699 (48 hours), read-out: MIC, Visual.
The mark [14] stands for this setting: Staphylococcus aureus (ATCC 33591), methicillin resistant, read-out: MIC.
Setting [15] is: Staphylococcus aureus, ATCC 33591, 24 hours.
Setting [16] is: Staphylococcus aureus, ATCC 33591, 24 hours, read-out: MIC95.
Setting [17] is: Staphylococcus aureus, ATCC 33591, 24 hours, read-out: MIC, Visual.

In general, NOAEL refers to the highest dose or exposure tested at which no adverse effect was seen. For orientation: MIC90 means the lowest concentration that inhibits either 90% of growth or 90% of the strains tested, depending on the study. The MIC99 is an inhibitory concentration at the 99% level, which refers to growth in some studies and to a panel of isolates in others.

Values after ≈ are worked out from the molar mass of the structure shown. “Also recorded” adds a separate entry of the source. Where two headings read alike, the source gives them in different places. A value given as a limit tells only on which side of the number the result lay.

Chain of DRD5 (P21918 whole entry): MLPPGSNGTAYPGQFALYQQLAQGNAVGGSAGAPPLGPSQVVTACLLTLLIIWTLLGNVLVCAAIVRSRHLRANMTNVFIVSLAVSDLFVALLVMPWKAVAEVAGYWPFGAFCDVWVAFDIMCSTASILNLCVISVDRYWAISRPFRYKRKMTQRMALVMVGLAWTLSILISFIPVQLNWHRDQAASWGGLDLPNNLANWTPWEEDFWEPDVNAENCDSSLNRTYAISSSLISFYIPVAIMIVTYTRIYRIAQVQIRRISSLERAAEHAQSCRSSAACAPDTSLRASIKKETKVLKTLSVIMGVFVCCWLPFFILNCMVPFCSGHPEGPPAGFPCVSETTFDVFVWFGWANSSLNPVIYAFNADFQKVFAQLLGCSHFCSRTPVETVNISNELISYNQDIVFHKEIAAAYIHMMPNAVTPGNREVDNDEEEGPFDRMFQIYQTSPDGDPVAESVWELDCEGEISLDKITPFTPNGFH

Consider `O=C1C2=C(CCN(Cc3ccccc3)C2)N2CCN=C2N1Cc1ccc(F)c(F)c1` [ONC213], for which the NOAEL in series [1] amounted to 75 mg/kg. Besides, on DRD3, the “GPCR activity, DRD3” value is on record as “DRD2/3 inhibitor; also recorded: more than ONC201 but less than ONC206”. In addition, in [2], the “GPCR activity, DRD2” value is “DRD2/3 inhibitor; also recorded: more than ONC201 but less than ONC206”. Besides, the “GPCR activity, GPR91” value at GPR91 is “GPR132/91 agonist”. Moreover, the MIC in [3] (setting [7]) was 25 µg/mL (≈ 61.2 µM); in [3] (setting [9]), 12.5 µg/mL (≈ 30.6 µM); in series [3] (setting [10]), 25 µg/mL (≈ 61.2 µM); in series [4] (setting [12]), 12.5 µg/mL (≈ 30.6 µM); in series [4] (setting [13]) it was 12.5 µg/mL (≈ 30.6 µM); in series [5] (setting [14]), 3.13 µg/mL (≈ 7.66 µM). For the same molecule, the MIC was 6.25 µg/mL (≈ 15.3 µM) in series [5] (setting [16]) and 3.12 µg/mL (≈ 7.65 µM) in series [5] (setting [17]). Besides, the MIC90 in series [3] (setting [8]) was determined as 12.5 µg/mL (≈ 30.6 µM); in [4] (setting [11]), 6.25 µg/mL (≈ 15.3 µM); in [5] (setting [15]), 3.13 µg/mL (≈ 7.66 µM). Besides, the values for the MIC99 in series [3] (setting [8]), in series [4] (setting [11]) and in series [5] (setting [15]) were 25 µg/mL (≈ 61.2 µM), 12.5 µg/mL (≈ 30.6 µM) and 100 µg/mL (≈ 245 µM), respectively. For the same molecule, the “GPCR activity, GPR132” value at GPR132 was “less than ONC212; also recorded: GPR132/91 agonist”. Moreover, in the series on normal cells, the “in vitro toxicity to normal cells” value is “reduced compared to ONC212”. Also, the “Relative Potency*” value in the series on human cancer cells was “A (A Indicates a potency increase of >2-fold of ONC201)”.
For the molecule `O=C1C2=C(CCN(Cc3ccc(Cl)c(Cl)c3)C2)N2CCN=C2N1Cc1ccc(C(F)(F)F)cc1` [ONC234], the “GPCR activity, DRD2” value in series [2] was “antagonist activity”. Further, the “GPCR profile / selectivity” value with GPCRs is “broad spectrum and potent GPCR targeting small molecule”. Also, the “GPCR activity, DRD5” value at DRD5 is recorded as “antagonist activity”. Also, the “Relative Potency*” value in the series on human cancer cells is on record as “A (A Indicates a potency increase of >2-fold of ONC201)”. Besides, the “GPCR activity, CXCR7” value at CXCR7 was “CXCR7 agonist activity”.
In the case of `Cc1ccccc1CN1C2=NCCN2C(=O)C2=C1CCN(Cc1ccccc1)C2` [TIC-10], the MIC in series [3] (setting [7]) is > 100 µg/mL; in [3] (setting [9]) it was > 100 µg/mL; in series [3] (setting [10]), > 100 µg/mL; in series [4] (MDR Staphylococcus aureus (ATCC 700699), read-out: MIC), > 100 µg/mL; in series [4] (setting [12]) it was > 100 µg/mL; in series [4] (setting [13]), > 100 µg/mL. Further, the MIC in series [5] (setting [14]), in [5] (setting [16]) and in series [5] (setting [17]) was > 100 µg/mL in each case. For the same molecule, the MIC90 in series [3] (setting [8]), in series [4] (setting [11]) and in [5] (setting [15]) was > 100 µg/mL each time. Also, the MIC99 in series [3] (setting [8]), in series [4] (setting [11]) and in series [5] (setting [15]) was > 100 µg/mL each time. In addition, the “antagonism of DRD2L” value at DRD2L is listed as “did not inhibit”. The “GPCR activity, CXCR7” value on CXCR7 was “CXCR7 agonist”. Also, in [6], the anti-cancer activity result is reported as “lacks anti-cancer activity”.

The record behind these values is patent publication US11116771B2, “G protein-coupled receptor (GPCR) modulation by imipridones” (Oncoceutics, Inc., priority 2016, dated 2021).
